According to PubChem BioAssay (NCI):
“And” between values parts separate entries of the source, which are not always exact repeats. Equal values may be shown once.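 How tested: cells in 96-well plates exposed to compound for 48 hours at five concentrations. GI50 is the concentration that inhibits growth by half. TGI denotes the concentration required for complete inhibition of growth.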

Columns and labels:
Experiment in all cases: growth of human tumour cells (NCI), 48 h
[1] = system: A498 renal
[2] = system: IGROV1 ovarian
[3] = system: 786-0 renal
[4] = system: SK-OV-3 ovarian
[5] = system: ACHN renal
[6] = system: CAKI-1 renal
[7] = system: HOP-92 NSCLC
[8] = system: TK-10 renal
[9] = system: SR leukemia
[10] = system: SK-MEL-2 melanoma

Compound | GI50 [1] | TGI [1] | GI50 [2] | TGI [2] | GI50 [3] | TGI [3] | GI50 [4] | TGI [4] | GI50 [5] | TGI [5] | GI50 [6] | TGI [6] | GI50 [7] | TGI [7] | GI50 [8] | TGI [8] | GI50 [9] | TGI [9] | GI50 [10] | TGI [10]
Cc1csc(/C=N/NC(=O)c2nnn(-c3ccnc4c(C(F)(F)F)cccc34)c2C)c1 | 83.1 µM | > 100 µM | > 100 µM | > 100 µM | > 100 µM | > 100 µM | 28.7 µM | > 100 µM | 63.8 µM | > 100 µM | 64.6 µM | > 100 µM | 55.8 µM | > 100 µM | 41.8 µM | > 100 µM | 19.3 µM | > 100 µM | > 100 µM | > 100 µM
COc1cc(NS(C)(=O)=O)ccc1Nc1c2ccccc2nc2c(C)cccc12 | 0.0806 µM and 0.0968 µM | 1.03 µM and 1.6 µM | 0.541 µM and 0.438 µM | 24.1 µM and 19.9 µM | 0.16 µM and 0.17 µM | 0.923 µM and 1.34 µM | 0.302 µM and 0.332 µM | 7.8 µM and 11 µM | 0.0427 µM and 0.0464 µM | 1.28 µM and 1.57 µM | 0.073 µM and 0.0923 µM | 4.6 µM and 5.71 µM | 0.0495 µM and 0.104 µM | 1.1 µM and 2.27 µM | 0.476 µM and 0.16 µM | 2.94 µM and 1.38 µM | < 0.0145 µM and 0.013 µM | 6.75 µM and 2.16 µM | 6.54 µM and 1.72 µM | 20.8 µM and 10.4 µM
Cc1cc(Cc2cc(C)c(O)c(C)c2)cc(C)c1O | 11.9 µM | 35.5 µM | 11.3 µM | > 100 µM | 10.4 µM | 40.4 µM | 6.47 µM | 52.4 µM | 12.1 µM | > 100 µM | 3.74 µM | 21.6 µM | 4.35 µM | 29.4 µM | 11.2 µM | 56.8 µM | 2.65 µM | 20.2 µM | 3.65 µM | 11 µM
CC1(C)OC(=O)[C@@](C)([C@H](O)c2ccccc2)O1 | – | > 100 µM | – | > 100 µM | – | > 100 µM | – | > 100 µM | – | > 100 µM | – | > 100 µM | – | > 100 µM | – | > 100 µM | – | > 100 µM | – | > 100 µM
COC(=O)C1CC(=O)CCC1c1ccccc1 (stereo not given) | – | > 100 µM | – | > 100 µM | – | > 100 µM | – | > 100 µM | – | > 100 µM | – | > 100 µM | – | > 100 µM | – | > 100 µM | – | > 100 µM | – | > 100 µM
CN(CCC#N)c1ccc(/C=C(\C#N)c2cccc(C(F)(F)F)c2)cc1 | 1.44 µM | 8.89 µM | 4.95 µM | > 100 µM | 4.15 µM | > 100 µM | 36.7 µM | > 100 µM | 4.13 µM | > 100 µM | 4.24 µM | > 100 µM | 3.01 µM | 66.7 µM | 3.12 µM | > 100 µM | 2.52 µM | > 100 µM | 2.57 µM | 8.11 µM
O=C(/C=C/C12c3ccccc3C(c3ccccc31)C1C(=O)N(c3ccccc3)C(=O)C12)c1ccc(Cl)cc1 (stereo not given) | 1.16 µM | 2.44 µM | 2.1 µM | 6.09 µM | 2.44 µM | 6.97 µM | 5.28 µM | > 100 µM | 1.39 µM | 2.81 µM | 1.02 µM | 3.52 µM | 1.33 µM | 3.26 µM | 3.18 µM | 25.1 µM | 1.07 µM | > 100 µM | 2.48 µM | 5.86 µM
N#CNC(N)=NCCO | – | > 100 µM | – | > 100 µM | – | > 100 µM | – | > 100 µM | – | > 100 µM | – | > 100 µM | – | > 100 µM | – | > 100 µM | – | 86.2 µM | – | > 100 µM
N#CCCN(CCC#N)C(=O)c1cccc(C(=O)N(CCC#N)CCC#N)c1 | – | > 100 µM | – | > 100 µM | – | > 100 µM | – | > 100 µM | – | > 100 µM | – | > 100 µM | – | > 100 µM | – | > 100 µM | – | > 68.4 µM | – | > 100 µM
Cc1c(C)c2c(c(C)c1NC(=O)/C=C\C(=O)O)CCC(C)(CCCC(C)CCCC(C)CCCC(C)C)O2 (stereo not given) | 1.38 µM | 2.7 µM | 1.94 µM | 4.88 µM | 1.69 µM | 3.06 µM | 1.73 µM | 3.25 µM | 1.7 µM | 3.07 µM | 1.49 µM | 3.12 µM | 1.1 µM | 2.35 µM | 1.84 µM | 3.39 µM | 1.61 µM | 4.63 µM | 1.86 µM | 3.68 µM
O=S1CSCS1 (stereo not given) | – | > 100 µM | – | > 100 µM | – | > 100 µM | – | > 100 µM | – | > 100 µM | – | > 100 µM | – | > 100 µM | – | > 100 µM | – | > 100 µM | – | > 100 µM
O=C(CCN1CCOCC1)Nc1ccc(F)cc1F | – | > 100 µM | – | > 100 µM | – | > 100 µM | – | > 100 µM | – | > 100 µM | – | > 100 µM | – | > 100 µM | – | > 100 µM | – | > 100 µM | – | > 100 µM
O=C(C/C(=N\NC(=O)C[n+]1ccccc1)C(=O)Nc1nc2ccc([N+](=O)[O-])cc2s1)CC(c1ccccc1)c1c(O)c2ccccc2oc1=O (stereo not given) | – | > 100 µM | – | > 100 µM | – | > 100 µM | – | > 100 µM | – | > 100 µM | – | > 100 µM | – | > 100 µM | – | > 100 µM | – | > 100 µM | – | > 100 µM
O=C1c2ccccc2NC(c2cc(Cl)cc(Cl)c2O)N1CCc1ccccn1 (stereo not given) | – | > 100 µM | – | > 100 µM | – | > 100 µM | – | > 100 µM | – | > 100 µM | – | > 100 µM | – | > 100 µM | – | > 100 µM | – | > 100 µM | – | > 100 µM
C=C1C(=O)O[C@H]2[C@H]1CC/C(Cn1cc(CNCCc3c[nH]c4ccc(Cl)cc34)nn1)=C\CC[C@@]1(C)O[C@@H]21 | 12.8 µM | 34.5 µM | 2.44 µM | 9.59 µM | 2.89 µM | 10.2 µM | 35 µM | > 100 µM | 10.2 µM | 22.2 µM | 15.2 µM | 28.7 µM | 1.34 µM | 3.05 µM | 2.29 µM | 7 µM | 3.01 µM | 9.66 µM | 10.3 µM | 26.1 µM
